Laboratory results as given in article PMC6757289, “Design and Characterization of SGK3-PROTAC1, an Isoform Specific SGK3 Kinase PROTAC Degrader” (ACS Chemical Biology, 2019).
Read-outs that look alike come from different tables or passages of the source.

Tests used:
Experiment in all cases: kinase profiling panel
Format in all cases: biochemical
WNK1 = WNK1 (Homo sapiens, UniProt Q9H4A3); details: read-out: % Activity Remaining
Text: (§1) Protein kinase profiling against a Dundee panel of 140 protein kinases was undertaken at the International Centre for Protein Kinase Profiling. The result for each kinase was presented as a mean kinase activity of the reaction taken in triplicate relative to a control sample treated with DMSO. Assay conditions and abbreviations are available at http://www.kinase-screen.mrc.ac.uk.

PAK2 = PAK2 (Homo sapiens, UniProt Q13177); details: read-out: % Activity Remaining
Text: as §1

EPH-B1 = biological target: T1, EPH-B1 (Homo sapiens, UniProt P54762); details: read-out: % Activity Remaining
T1 sequence (P54762 18-984): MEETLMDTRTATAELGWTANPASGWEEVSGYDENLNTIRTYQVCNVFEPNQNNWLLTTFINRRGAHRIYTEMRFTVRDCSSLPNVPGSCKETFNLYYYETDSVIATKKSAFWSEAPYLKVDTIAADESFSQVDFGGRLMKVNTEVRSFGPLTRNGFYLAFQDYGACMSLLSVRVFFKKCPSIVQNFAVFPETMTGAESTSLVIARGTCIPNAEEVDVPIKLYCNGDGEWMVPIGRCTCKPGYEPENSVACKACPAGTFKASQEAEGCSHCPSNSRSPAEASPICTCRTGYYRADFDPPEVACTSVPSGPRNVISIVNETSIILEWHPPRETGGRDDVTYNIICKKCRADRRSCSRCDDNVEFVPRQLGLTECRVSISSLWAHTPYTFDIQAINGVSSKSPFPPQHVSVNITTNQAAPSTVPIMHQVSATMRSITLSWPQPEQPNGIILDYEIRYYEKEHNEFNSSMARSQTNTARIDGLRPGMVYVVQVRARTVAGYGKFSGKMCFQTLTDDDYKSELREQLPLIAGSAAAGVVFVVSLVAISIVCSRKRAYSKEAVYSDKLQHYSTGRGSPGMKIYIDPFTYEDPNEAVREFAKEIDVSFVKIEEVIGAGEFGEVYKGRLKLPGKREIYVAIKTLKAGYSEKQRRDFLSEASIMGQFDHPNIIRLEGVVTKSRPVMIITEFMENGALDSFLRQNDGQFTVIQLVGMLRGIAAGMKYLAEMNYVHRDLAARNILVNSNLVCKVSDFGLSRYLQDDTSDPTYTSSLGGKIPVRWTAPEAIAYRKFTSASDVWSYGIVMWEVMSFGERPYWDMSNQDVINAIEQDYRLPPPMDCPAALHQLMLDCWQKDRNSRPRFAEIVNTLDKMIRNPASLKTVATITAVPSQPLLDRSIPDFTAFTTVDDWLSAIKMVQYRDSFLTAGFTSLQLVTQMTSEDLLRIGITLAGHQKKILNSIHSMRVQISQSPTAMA
Text: as §1

MST2 = biological target: T2, MST2 (Homo sapiens, UniProt Q13188); details: read-out: % Activity Remaining
T2 sequence (Q13188 1-491): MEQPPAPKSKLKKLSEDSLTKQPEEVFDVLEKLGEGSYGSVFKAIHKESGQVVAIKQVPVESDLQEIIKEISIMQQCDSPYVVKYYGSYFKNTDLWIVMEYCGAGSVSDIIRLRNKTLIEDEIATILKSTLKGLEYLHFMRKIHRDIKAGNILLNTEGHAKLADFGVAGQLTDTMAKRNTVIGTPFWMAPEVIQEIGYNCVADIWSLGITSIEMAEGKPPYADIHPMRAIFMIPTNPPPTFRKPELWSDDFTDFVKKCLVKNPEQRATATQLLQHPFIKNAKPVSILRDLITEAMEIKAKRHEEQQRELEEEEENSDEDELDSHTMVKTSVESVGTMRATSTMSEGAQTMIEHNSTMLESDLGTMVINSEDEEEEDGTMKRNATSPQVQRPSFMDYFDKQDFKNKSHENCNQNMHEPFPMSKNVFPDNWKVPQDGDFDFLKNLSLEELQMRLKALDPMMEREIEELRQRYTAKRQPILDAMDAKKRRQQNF
Text: as §1

AMPK (hum) = details: 1 µM
Text: as §1

TLK1 = biological target: T3, TLK1 (Homo sapiens, UniProt Q9UKI8); details: read-out: % Activity Remaining
T3 sequence (Q9UKI8 1-766): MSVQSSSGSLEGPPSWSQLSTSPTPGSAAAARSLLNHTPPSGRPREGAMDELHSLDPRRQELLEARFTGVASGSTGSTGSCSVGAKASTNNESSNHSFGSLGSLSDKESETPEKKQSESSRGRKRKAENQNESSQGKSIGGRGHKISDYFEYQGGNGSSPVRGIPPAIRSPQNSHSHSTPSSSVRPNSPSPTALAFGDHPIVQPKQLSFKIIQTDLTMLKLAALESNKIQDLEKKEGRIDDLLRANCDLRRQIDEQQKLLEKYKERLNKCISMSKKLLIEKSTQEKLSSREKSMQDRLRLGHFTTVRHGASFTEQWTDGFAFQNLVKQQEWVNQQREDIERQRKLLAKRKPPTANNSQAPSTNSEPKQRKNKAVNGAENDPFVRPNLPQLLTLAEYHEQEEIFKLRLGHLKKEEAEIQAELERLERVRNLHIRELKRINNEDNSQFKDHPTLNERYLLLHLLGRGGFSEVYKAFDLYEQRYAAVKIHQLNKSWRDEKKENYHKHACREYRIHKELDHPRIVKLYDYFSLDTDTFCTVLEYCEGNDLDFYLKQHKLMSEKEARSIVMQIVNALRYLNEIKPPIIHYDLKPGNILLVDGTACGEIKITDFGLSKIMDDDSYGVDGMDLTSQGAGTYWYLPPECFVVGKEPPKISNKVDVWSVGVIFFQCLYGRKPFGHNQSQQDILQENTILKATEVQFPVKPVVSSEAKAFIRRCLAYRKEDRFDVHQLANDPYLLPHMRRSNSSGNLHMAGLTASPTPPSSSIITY
Text: as §1

p38 delta MAPK = biological target: T4, p38 delta MAPK (Homo sapiens, UniProt O15264); details: read-out: % Activity Remaining
T4 sequence (O15264 1-365): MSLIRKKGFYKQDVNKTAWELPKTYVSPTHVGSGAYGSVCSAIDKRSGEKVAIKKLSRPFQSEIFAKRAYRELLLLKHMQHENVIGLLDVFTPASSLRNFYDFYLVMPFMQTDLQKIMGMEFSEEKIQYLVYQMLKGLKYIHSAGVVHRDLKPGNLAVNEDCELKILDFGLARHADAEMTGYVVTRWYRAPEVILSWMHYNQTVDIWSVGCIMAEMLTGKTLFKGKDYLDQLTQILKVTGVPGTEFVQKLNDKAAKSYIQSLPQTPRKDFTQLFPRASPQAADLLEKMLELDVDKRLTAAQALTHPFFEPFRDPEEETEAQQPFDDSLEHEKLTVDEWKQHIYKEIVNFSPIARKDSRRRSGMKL
Text: as §1

Chain of WNK1 (Q9H4A3 whole entry): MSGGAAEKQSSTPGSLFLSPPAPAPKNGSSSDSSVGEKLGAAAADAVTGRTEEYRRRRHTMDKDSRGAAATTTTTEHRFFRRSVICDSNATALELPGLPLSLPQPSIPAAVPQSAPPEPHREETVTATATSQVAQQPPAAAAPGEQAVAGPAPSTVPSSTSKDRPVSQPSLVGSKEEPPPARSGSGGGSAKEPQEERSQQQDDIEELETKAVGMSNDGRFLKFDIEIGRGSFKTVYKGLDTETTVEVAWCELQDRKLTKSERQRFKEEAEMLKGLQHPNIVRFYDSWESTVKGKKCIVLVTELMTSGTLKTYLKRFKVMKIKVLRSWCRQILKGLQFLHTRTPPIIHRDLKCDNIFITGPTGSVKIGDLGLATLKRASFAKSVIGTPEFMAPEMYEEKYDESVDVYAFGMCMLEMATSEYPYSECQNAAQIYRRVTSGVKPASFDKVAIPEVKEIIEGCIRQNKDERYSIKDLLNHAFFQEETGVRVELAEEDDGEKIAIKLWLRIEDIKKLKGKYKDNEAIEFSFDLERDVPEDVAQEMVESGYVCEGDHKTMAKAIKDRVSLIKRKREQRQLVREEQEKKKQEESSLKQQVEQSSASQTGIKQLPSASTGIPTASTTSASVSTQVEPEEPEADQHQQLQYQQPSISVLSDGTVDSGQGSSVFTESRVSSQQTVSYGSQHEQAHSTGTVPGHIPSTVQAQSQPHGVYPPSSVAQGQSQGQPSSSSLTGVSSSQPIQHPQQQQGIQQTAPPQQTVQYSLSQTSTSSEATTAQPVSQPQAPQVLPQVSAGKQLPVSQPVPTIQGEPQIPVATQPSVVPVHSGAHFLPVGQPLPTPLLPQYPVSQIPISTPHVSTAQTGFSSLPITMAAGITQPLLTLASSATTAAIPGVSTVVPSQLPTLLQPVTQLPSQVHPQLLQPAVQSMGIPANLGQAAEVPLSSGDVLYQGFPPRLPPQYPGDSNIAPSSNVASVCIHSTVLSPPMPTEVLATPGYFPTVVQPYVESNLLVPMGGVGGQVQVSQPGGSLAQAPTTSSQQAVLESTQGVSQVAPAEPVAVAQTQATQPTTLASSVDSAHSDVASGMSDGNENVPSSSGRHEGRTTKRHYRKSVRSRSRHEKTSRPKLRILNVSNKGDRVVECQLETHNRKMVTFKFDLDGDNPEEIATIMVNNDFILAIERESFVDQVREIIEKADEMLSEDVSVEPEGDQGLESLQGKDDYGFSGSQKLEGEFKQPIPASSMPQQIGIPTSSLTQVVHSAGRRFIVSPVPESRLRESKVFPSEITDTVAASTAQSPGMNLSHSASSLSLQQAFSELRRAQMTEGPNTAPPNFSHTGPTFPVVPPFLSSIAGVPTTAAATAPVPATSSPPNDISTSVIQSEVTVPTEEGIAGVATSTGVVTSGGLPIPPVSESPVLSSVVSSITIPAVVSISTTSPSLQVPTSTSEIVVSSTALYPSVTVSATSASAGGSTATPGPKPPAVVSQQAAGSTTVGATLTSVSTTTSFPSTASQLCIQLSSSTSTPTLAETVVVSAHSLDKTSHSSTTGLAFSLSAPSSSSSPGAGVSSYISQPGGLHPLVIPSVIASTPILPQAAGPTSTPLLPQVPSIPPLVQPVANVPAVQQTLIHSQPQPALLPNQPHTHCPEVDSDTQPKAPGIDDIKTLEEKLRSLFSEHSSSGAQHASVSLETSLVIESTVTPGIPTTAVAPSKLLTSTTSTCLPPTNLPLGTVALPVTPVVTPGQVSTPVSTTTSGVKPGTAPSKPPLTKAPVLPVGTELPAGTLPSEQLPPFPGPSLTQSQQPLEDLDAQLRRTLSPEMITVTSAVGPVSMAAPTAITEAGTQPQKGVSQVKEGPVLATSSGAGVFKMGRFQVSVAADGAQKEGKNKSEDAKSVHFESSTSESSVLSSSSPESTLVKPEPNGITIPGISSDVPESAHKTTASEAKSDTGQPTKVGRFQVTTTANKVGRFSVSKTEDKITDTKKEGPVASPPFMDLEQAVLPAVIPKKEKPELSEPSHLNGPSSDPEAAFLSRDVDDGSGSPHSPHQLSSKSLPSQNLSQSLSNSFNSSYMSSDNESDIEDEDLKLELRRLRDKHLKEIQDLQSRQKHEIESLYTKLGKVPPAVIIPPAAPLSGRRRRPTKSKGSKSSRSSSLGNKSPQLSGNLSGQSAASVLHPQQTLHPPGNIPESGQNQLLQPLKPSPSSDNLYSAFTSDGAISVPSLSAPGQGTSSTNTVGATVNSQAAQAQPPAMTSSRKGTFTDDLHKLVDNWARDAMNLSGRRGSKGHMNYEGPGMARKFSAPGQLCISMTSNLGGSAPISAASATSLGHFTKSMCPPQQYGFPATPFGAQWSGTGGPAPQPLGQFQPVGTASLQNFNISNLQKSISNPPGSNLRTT
Chain of PAK2 (Q13177 whole entry): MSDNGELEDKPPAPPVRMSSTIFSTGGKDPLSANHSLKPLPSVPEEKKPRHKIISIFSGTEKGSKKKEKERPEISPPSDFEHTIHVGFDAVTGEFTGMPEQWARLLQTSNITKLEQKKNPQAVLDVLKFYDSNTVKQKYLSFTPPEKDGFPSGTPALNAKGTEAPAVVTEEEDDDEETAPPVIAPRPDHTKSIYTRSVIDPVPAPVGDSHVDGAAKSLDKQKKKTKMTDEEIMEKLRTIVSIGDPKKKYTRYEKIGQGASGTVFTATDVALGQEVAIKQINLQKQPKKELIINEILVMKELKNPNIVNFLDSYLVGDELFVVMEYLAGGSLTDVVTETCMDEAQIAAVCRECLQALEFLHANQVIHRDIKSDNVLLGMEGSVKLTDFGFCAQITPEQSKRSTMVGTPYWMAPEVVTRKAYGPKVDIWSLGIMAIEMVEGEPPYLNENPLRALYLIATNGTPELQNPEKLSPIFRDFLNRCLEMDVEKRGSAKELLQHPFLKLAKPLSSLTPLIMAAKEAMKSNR

| SMILES | remaining activity at 1 µM (WNK1) [%] | remaining activity at 1 µM (PAK2) [%] | remaining activity at 1 µM (EPH-B1) [%] | remaining activity at 1 µM (MST2) [%] | % Activity Remaining (AMPK (hum)) [%] | remaining activity at 1 µM (TLK1) [%] | remaining activity at 1 µM (p38 delta MAPK) [%] | remaining activity at 1 µM (WNK1; 1 µM) [%] | remaining activity at 1 µM (PAK2; 1 µM) [%] | remaining activity at 1 µM (EPH-B1; 1 µM) [%] | remaining activity at 1 µM (MST2; 1 µM) [%] | remaining activity at 1 µM (TLK1; 1 µM) [%] | remaining activity at 1 µM (p38 delta MAPK; 1 µM) [%] |
| --- | --- | --- | --- | --- | --- | --- | --- | --- | --- | --- | --- | --- | --- |
| COc1ccc(Cl)c(S(=O)(=O)Nc2ccc(-c3nc(OC[C@H]4CNCCO4)c4c(C)n[nH]c4n3)cc2)c1 [290-R, reference compound] | 110 | 90 | 117 | 105 | 15 | 89 | 111 |  |  |  |  |  |  |
| Cc1ccc(F)c(S(=O)(=O)Nc2ccc(-c3nc(OC[C@H]4CNCCO4)c4cn[nH]c4n3)cc2)c1 [308-R, reference compound] | 75 | 53 | 96 | 86 | 78 | 108 | 126 |  |  |  |  |  |  |
| Cc1ccc(F)c(S(=O)(=O)Nc2ccc(-c3nc(OC[C@H]4CN(CCCCCCOCCOCCOCC(=O)N[C@H](C(=O)N5C[C@H](O)C[C@H]5C(=O)NCc5ccc(-c6scnc6C)cc5)C(C)(C)C)CCO4)c4cn[nH]c4n3)cc2)c1 [SGK3-PROTAC1] |  |  |  |  | 105 |  |  | 94 | 116 | 100 | 112 | 102 | 103 |
| Cc1ccc(F)c(S(=O)(=O)Nc2ccc(-c3nc(OC[C@H]4CN(CCCCCCOCCOCCOCC(=O)N[C@H](C(=O)N5C[C@@H](O)C[C@H]5C(=O)NCc5ccc(-c6scnc6C)cc5)C(C)(C)C)CCO4)c4cn[nH]c4n3)cc2)c1 [cisSGK3-PROTAC1] |  |  |  |  | 108 |  |  | 97 | 99 | 108 | 100 | 109 | 121 |
